Test results taken from patent US20220143183A1, “PHOTOSWITCHABLE PROTACS AND SYNTHESIS AND USES THEREOF” (New York University, priority 2019, published 2022).

Assays:
BRD4 = BRD4 (Homo sapiens, UniProt O60885); assay: Western blot of BRD4 levels in RS4;11 cells; assay type: cell-based; parameters: endogenous in cells; host or cells: RS4;11 (ATCC CRL-1873)
Description: (§1) Next, the light dependence of targeted protein degradation was analyzed in RS4;11 cells by western blot analysis of the BET proteins BRD2-4 (FIG. 5). To this end, cells were treated with increasing concentrations of our lead compound, PHOTAC-I-3, for 4 h and pulse-irradiated with 390 nm light (100 ms every 10 s). […] The cereblon-dependent degradation was confirmed by a competition experiment (FIG. 5E), and further validated by siRNA knockdown of cereblon (FIG. 13).
Western Immunoblot Analysis. Rabbit monoclonal Antibodies for BRD4 (#13440), β-Actin (#4970) c-Myc (#5605) and Anti-rabbit IgG, HRP-linked Antibody (#7074) were purchased from Cell Signalling Technologies.
(§2) Cells were incubated with different concentrations of selected compounds. They were placed in a light-proof box and preirradiated for 1 min at 390 nm followed by 100 ms pulses every 10 s or were kept in the dark for 4 h.
(§3) Cultured cells were collected by centrifugation and washed twice with cold PBS. The supernatant was removed and each cell pellet was lysed in 100 μL NP40-Cell-Lysis Buffer+0.1% SDS+1 mM PMSF+ protease inhibitor cocktail (Sigma Aldrich) for 30 min on ice, with vortexing at 10-minute intervals. Afterwards, cells were centrifuged at 13.000 rpm for 10 min at 4° C. Samples were stored on ice and the supernatant was collected for protein concentration determination using a Thermofisher Scientific Pierce™ Coomassie Plus (Bradford) Assay Kit.
The samples were diluted each with 5 μL Laemmli sample buffer Invitrogen (NuPAGE LDS Sample Buffer 4×) and 1 μL DTT, heated at 95° C. for 5 min. Respectively 20 μL of each sample was loaded in a lane of a Bio-Rad Mini-PROTEAN TGX precast Gel, 4-20%, used with tris-glycine SDS Running buffer. The gel ran 5 min at 50 V, then 35 min at 140 V. Next step was the electrotransfer to a polyvinylidene difluoride (PVDF) membrane which was carried out using an iBlot™ 2 Dry Blotting System set to the standard program. After the transfer, the membrane was washed with 25 mL TB ST for 5 min and subsequent incubated in 25 mL of blocking buffer (1×TBST+5% nonfat dry milk, Blotto, Santa Cruz Biotechnology) for 1 h at room temperature. The membrane was washed three times for 5 min each with 15 mL of TBST and incubated in a 10 mL antibody dilution buffer with gentle agitation at 4° C. overnight (Actin: 1:1000; c-MYC: 1:1000; BRD4: 1:1000). The next day, the membrane was washed again three times for 5 min each with 15 mL TBST, followed by incubation with anti-rabbit, HRP-linked antibody (1:2000) in 10 mL blocking buffer with gentle agitation for 1 h at room temperature. Afterwards, the membrane was washed three times for 5 min each with 15 mL TBST and then incubated in 10 mL of Clarity Max Western ECL Substrate solution for 5 min. Chemoluminescence imaging was performed on a Bio-Rad ChemiDoc™ Imaging System.
LED illumination. For illumination of the cells we used the cell disco system as previously described in the literature^[25]. 390 nm 5 mm LEDs were purchased from Roithner Lasertechnik. Cells were preirradiated for 1 min at 390 nm, followed by 100 ms pulses every 10 s in 96- or 6-well plates.

PARP-1 = assay: Immunoblot of PARP-1 cleavage in RS4;11 cells; assay type: cell-based, human; conditions: 1 μM, sustained 390 nm pulse irradiation
Description: FIG. 5 depicts optical control of BRD2-4 levels. A) Immunoblot analysis after treatment of RS4;11 cells with PHOTAC-I-3 for 4 h at different concentrations. Cells were either irradiated with 100 ms pulses of 390 nm light every 10 s (left) or kept in the dark (right). B) Time course of BRD2-4 degradation, c-MYC levels and PARP1 cleavage assayed by immunoblotting. RS4;11 cells were treated with PHOTAC-I-3 (1 μM) and collected at the indicated time points. PHOTAC-I-3 has no effect on BRD2-4 levels in the dark over several hours. […] D) Color-dosing: Wavelength dependence of BRD2/4 degradation promoted by 300 nM PHOTAC-I-3. E) Immunoblot analysis after treatment of RS4;11 cells with PHOTAC-I-3 and combinations with lenalidomide or (+)-JQ1 for 4 h to confirm a cereblon-based mechanism. Cells were either irradiated with 100 ms pulses of 390 nm light every 10 s (left) or kept in the dark (right). F) Optical degradation of BRD4 with the thalidomide derivative PHOTAC-I-10. Immunoblot analysis of RS4;11 cells after treatment with PHOTAC-I-10 for 4 h at different concentrations which were either irradiated with 100 ms pulses of 390 nm light every 10 s (left) or kept in the dark (right). […] The slight effect on c-MYC can be explained by inhibition of BRD4 with the (+)-JQ1 derivative PHOTAC-I-3 in the absence of targeted degradation.

BRD2-4 = assay: Western blot of BET proteins in RS4;11 cells, results stated for BRD2-4 together; assay type: cell-based, human
Description: as §1
The slight effect on c-MYC can be explained by inhibition of BRD4 with the (+)-JQ1 derivative PHOTAC-I-3 in the absence of targeted degradation.
as §2
Cultured cells were collected by centrifugation and washed twice with cold PBS. The supernatant was removed and each cell pellet was lysed in 100 μL NP40-Cell-Lysis Buffer+0.1% SDS+1 mM PMSF+ protease inhibitor cocktail (Sigma Aldrich) for 30 min on ice, with vortexing at 10-minute intervals. Afterwards, cells were centrifuged at 13.000 rpm for 10 min at 4° C. Samples were stored on ice and the supernatant was collected for protein concentration determination using a Thermofisher Scientific Pierce™ Coomassie Plus (Bradford) Assay Kit. […]

BRD3 = target: T1, BRD3 (Homo sapiens, UniProt Q15059); assay: Western blot of BRD3 levels in RS4;11 cells; assay type: cell-based
T1 construct: endogenous in cells; host or cells: RS4;11 (ATCC CRL-1873)
Description: as §1, §2, §3
The samples were diluted each with 5 μL Laemmli sample buffer Invitrogen (NuPAGE LDS Sample Buffer 4×) and 1 μL DTT, heated at 95° C. for 5 min. […]

T1 sequence (Q15059 whole entry): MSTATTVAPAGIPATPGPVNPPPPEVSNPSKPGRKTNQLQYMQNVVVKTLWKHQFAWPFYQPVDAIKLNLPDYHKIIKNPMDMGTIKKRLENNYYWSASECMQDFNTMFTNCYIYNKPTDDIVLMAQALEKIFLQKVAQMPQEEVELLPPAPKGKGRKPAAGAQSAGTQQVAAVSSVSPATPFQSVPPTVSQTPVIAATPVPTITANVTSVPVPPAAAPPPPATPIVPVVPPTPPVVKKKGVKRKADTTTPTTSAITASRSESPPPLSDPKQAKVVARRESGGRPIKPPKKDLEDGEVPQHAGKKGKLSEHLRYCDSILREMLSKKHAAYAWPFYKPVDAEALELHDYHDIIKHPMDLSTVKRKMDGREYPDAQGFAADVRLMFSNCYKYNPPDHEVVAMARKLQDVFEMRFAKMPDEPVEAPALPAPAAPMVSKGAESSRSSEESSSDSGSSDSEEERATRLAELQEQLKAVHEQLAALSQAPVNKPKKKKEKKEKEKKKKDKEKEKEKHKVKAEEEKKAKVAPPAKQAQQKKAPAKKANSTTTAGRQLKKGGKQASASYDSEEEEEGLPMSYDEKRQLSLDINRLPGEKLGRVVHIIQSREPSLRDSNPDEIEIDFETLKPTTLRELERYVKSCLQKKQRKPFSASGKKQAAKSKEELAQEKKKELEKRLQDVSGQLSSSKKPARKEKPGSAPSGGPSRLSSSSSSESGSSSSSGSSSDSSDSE

COc1cc(/N=N/c2cccc3c2CN(C2CCC(=O)NC2=O)C3=O)cc(OC)c1OCC(=O)NCCCCNC(=O)C[C@@H]1N=C(c2ccc(Cl)cc2)c2c(sc(C)c2C)-n2c(C)nnc21 (stereo partly drawn) [PHOTAC-I-3, 2-((S)-4-(4-chlorophenyl)-2,3,9-trimethyl-6H-thieno[3,2-f][1,2,4]triazolo[4,3-a][1,4]diazepin-6-yl)-N-(4-(2-(4-((E)-(2-(2,6-dioxopiperidin-3-yl)-1-oxoisoindolin-4-yl)diazenyl)-2,6-dimethoxyphenoxy)acetamido)butyl)acetamide]
time dependence of BRD4 degradation (BRD4; 1 μM, 390 nm pulse irradiation, compared with BRD2 and BRD3): degraded more slowly
BRD4 degradation at high concentration (hook effect) (BRD4; 10 μM, 4 h, 390 nm): less degradation
BRD4 levels (BRD4; 4 h, 390 nm pulses (100 ms every 10 s)): pronounced decrease of BRD4 levels
BRD4 degradation in the dark after brief activation (BRD4; activation for 1 min, 300 nM): Persistent degradation of BRD4
PARP-1 cleavage (indicator of apoptosis) (PARP-1): increasing cleavage of PARP-1
BRD2-4 levels with CRL inhibitor MLN4924 (BRD2-4; 1 μM together with MLN4924 (2.5 μM), 390 nm irradiation): rescued BRD2-4 levels
BRD levels in the dark, time course (BRD2-4; 1 μM, in the dark): no effect on BRD levels
exposure time after which BRD3 is largely absent (BRD3; 1 μM, 390 nm pulse irradiation): 1.5 h
BRD3 levels (BRD3; 4 h, irradiated with violet light (390 nm)): significantly reduced
